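Values below derive from 48-hour exposures of cells grown in 96-well plates, with endpoints linearly interpolated between the two concentrations bracketing the appropriate inhibition level. TGI: concentration producing complete growth inhibition.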
Tests used:
Test in all cases: NCI tumour cell line growth inhibition, 48 h
A549 NSCLC = tested on: A549 NSCLC
SF-539 CNS = tested on: SF-539 CNS
UO-31 renal = tested on: UO-31 renal
HL-60(TB) leukemia = tested on: HL-60(TB) leukemia
CAKI-1 renal = tested on: CAKI-1 renal
SN12C renal = tested on: SN12C renal
MOLT-4 leukemia = tested on: MOLT-4 leukemia
HCT-15 colon = tested on: HCT-15 colon
LOX IMVI melanoma = tested on: LOX IMVI melanoma
KM12 colon = tested on: KM12 colon
HOP-18 NSCLC = tested on: HOP-18 NSCLC
NCI-H23 lung = tested on: NCI-H23 lung
COLO 205 colon = tested on: COLO 205 colon
OVCAR-4 ovarian = tested on: OVCAR-4 ovarian
UACC-62 melanoma = tested on: UACC-62 melanoma
M14 melanoma = tested on: M14 melanoma
HCT-116 colon = tested on: HCT-116 colon
IGROV1 ovarian = tested on: IGROV1 ovarian
RPMI-8226 leukemia = tested on: RPMI-8226 leukemia
HOP-92 NSCLC = tested on: HOP-92 NSCLC
SK-MEL-5 melanoma = tested on: SK-MEL-5 melanoma
RXF 393 renal = tested on: RXF 393 renal
MALME-3M melanoma = tested on: MALME-3M melanoma
CCRF-CEM leukemia = tested on: CCRF-CEM leukemia
OVCAR-3 ovarian = tested on: OVCAR-3 ovarian
LXFL 529 NSCLC = tested on: LXFL 529 NSCLC
M19-MEL melanoma = tested on: M19-MEL melanoma
KM20L2 colon = tested on: KM20L2 colon
SK-MEL-2 melanoma = tested on: SK-MEL-2 melanoma
HT29 colon = tested on: HT29 colon
SNB-19 CNS = tested on: SNB-19 CNS
DMS 114 small cell lung = tested on: DMS 114 small cell lung
SW-620 colon = tested on: SW-620 colon
DMS 273 small cell lung = tested on: DMS 273 small cell lung
HCC-2998 colon = tested on: HCC-2998 colon
OVCAR-5 ovarian = tested on: OVCAR-5 ovarian
SF-268 CNS = tested on: SF-268 CNS
HOP-62 NSCLC = tested on: HOP-62 NSCLC
U251 CNS = tested on: U251 CNS
786-0 renal = tested on: 786-0 renal
SR leukemia = tested on: SR leukemia
TK-10 renal = tested on: TK-10 renal
OVCAR-8 ovarian = tested on: OVCAR-8 ovarian
K-562 leukemia = tested on: K-562 leukemia
ACHN renal = tested on: ACHN renal
SK-MEL-28 melanoma = tested on: SK-MEL-28 melanoma
SF-295 CNS = tested on: SF-295 CNS
NCI-H460 lung = tested on: NCI-H460 lung
A498 renal = tested on: A498 renal
DLD-1 colon = tested on: DLD-1 colon
SK-OV-3 ovarian = tested on: SK-OV-3 ovarian
NCI-H522 lung = tested on: NCI-H522 lung
SNB-75 CNS = tested on: SNB-75 CNS
UACC-257 melanoma = tested on: UACC-257 melanoma
SNB-78 CNS = tested on: SNB-78 CNS
EKVX NSCLC = tested on: EKVX NSCLC
NCI-H226 lung = tested on: NCI-H226 lung

Measured: TGI

COc1ccc(CN2CCC/C=C/CC(Cl)(Cl)C2=O)cc1
68.8 µM: SR leukemia
35 µM: SK-MEL-5 melanoma
57 µM: M14 melanoma
98.8 µM: OVCAR-4 ovarian
41.2 µM: COLO 205 colon
62.5 µM: HOP-92 NSCLC
69.4 µM: RPMI-8226 leukemia
69.2 µM: HL-60(TB) leukemia
95.2 µM: M19-MEL melanoma
64.8 µM: SNB-75 CNS
95.4 µM: SNB-19 CNS
87.7 µM: MALME-3M melanoma
73.7 µM: A498 renal
99.5 µM: NCI-H23 lung
78.8 µM: ACHN renal
68 µM: MOLT-4 leukemia
59.4 µM: NCI-H522 lung
44.8 µM: SK-MEL-2 melanoma
57.4 µM: UO-31 renal
78.7 µM: RXF 393 renal
71.3 µM: DMS 114 small cell lung
68.6 µM: SF-295 CNS
not listed: UACC-257 melanoma | SNB-78 CNS | EKVX NSCLC | NCI-H226 lung
> 100 µM: all other assays above

CCC(=O)Nc1nc2c(ncn2C2OC(COC(=O)CC)C(OC(=O)CC)C2OC(=O)CC)c(=O)[nH]1 (configuration not stated)
not listed: HOP-18 NSCLC | NCI-H23 lung | COLO 205 colon | HOP-92 NSCLC | CCRF-CEM leukemia | DMS 114 small cell lung | TK-10 renal | DLD-1 colon
> 100 µM: all other assays above
